Consider 29 compounds from patent US20240158370A1, “CK1 alpha AND DUAL CK1 alpha / GSPT1 DEGRADING COMPOUNDS” (Innovo Therapeutics, Inc., priority 2022, published 2024).

In test [1] the target is T1, CK1α (Homo sapiens, UniProt P48729+Q96SW2).
T1 construct: CSNK1A1-HiBit KI HEK293(LgBit) Cells; host or cells: HEK293(LgBit) knock-in cells
Kind of test: HiBiT degradation assay, CK1α, Procedure A. The test is classed as cell-based. The procedure, abridged:
(§1)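 Cells in DMEM+10% FBS at 1×10^6 cells/ml were added to pre-spotted compound (10-point dose response, 10 μM to 0.005 μM, 0.1% DMSO) and incubated 6 h at 37° C. Nano-Glo HiBiT lytic reagent was added and luminescence read. DC50 and Ymin came from 4-parameter curve fits.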
(With HiBiT, luminescence reflects the tagged protein that the partner subunit can reach.)

The target in test [2] is GSPT1 (Homo sapiens, UniProt P15170+Q96SW2). The test can be described thus: HiBiT degradation assay, GSPT1, Procedure A. The test is classed as cell-based. On the set-up: HiBit-GSPT1 KI HEK293(LgBit) Cells; host or cells: HEK293(LgBit) knock-in cells. The method, boiled down: as §1
GSPT1, sequence (P15170 whole entry): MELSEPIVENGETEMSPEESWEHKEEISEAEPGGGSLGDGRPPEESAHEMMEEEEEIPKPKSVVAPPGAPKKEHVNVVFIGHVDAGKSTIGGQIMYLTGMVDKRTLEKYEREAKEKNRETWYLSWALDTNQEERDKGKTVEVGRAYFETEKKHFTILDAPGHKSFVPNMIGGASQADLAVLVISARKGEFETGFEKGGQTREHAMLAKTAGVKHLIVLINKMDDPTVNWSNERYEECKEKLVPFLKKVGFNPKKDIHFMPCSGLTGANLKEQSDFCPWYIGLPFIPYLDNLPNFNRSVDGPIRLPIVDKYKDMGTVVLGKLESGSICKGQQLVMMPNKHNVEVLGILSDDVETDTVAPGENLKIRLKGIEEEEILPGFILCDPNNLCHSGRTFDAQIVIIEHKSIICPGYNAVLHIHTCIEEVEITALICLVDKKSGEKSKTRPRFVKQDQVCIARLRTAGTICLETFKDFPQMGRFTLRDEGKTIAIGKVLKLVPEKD
GSPT1, sequence (Q96SW2 whole entry): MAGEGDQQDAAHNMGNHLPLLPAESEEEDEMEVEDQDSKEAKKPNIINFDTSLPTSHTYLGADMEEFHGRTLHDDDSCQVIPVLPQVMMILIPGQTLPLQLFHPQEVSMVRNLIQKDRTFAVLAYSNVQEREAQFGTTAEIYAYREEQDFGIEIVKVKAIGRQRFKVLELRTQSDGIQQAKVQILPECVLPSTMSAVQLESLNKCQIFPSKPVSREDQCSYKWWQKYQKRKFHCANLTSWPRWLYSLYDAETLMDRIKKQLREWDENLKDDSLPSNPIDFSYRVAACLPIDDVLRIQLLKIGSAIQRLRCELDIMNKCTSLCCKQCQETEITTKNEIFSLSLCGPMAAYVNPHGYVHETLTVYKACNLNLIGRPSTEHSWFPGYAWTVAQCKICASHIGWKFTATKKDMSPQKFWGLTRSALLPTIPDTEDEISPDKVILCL
GSPT1, sequence (Q16531 whole entry partner): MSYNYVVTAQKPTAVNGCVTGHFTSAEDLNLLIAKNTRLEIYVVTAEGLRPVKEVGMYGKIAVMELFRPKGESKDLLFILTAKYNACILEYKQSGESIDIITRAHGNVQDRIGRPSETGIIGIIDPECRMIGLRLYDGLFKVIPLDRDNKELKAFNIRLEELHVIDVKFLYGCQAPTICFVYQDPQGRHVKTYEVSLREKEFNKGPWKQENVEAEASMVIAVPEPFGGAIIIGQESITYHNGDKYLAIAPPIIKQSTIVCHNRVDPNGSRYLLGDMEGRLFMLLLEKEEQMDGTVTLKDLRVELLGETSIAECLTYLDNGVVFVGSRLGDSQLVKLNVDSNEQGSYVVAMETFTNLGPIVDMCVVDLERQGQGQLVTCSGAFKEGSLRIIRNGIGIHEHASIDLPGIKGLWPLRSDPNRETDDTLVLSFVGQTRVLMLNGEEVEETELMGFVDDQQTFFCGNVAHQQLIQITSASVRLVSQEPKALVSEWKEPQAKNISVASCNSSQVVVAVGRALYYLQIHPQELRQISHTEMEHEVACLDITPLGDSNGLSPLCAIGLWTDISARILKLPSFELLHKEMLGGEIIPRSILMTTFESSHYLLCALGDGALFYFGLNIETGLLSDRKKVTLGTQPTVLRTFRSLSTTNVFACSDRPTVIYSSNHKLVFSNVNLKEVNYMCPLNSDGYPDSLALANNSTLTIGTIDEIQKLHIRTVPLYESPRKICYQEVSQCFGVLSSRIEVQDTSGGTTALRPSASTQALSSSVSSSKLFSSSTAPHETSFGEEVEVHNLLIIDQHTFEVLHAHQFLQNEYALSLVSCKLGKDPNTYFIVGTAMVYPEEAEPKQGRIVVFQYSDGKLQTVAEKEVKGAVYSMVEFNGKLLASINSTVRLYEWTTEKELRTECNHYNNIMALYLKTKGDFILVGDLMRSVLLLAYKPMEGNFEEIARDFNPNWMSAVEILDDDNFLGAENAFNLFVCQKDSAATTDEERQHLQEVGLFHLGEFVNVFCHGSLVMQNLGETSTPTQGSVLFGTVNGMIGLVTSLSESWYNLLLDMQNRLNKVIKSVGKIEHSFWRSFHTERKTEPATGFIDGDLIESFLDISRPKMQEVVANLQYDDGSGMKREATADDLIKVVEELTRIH

Molecules are shown by their SMILES.

T1 sequence (P48729 whole entry): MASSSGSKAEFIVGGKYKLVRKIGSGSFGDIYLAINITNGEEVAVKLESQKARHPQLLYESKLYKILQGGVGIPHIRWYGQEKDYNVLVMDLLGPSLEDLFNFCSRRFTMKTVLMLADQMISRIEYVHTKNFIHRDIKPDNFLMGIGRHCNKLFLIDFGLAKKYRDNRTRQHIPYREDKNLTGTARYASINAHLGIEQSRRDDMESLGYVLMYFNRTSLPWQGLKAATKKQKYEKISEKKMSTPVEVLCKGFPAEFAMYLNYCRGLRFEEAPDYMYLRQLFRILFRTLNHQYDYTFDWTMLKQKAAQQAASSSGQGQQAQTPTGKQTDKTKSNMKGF
T1 sequence (Q96SW2 whole entry): as the sequence (Q96SW2 whole entry) above
T1 sequence (Q16531 whole entry partner): as the sequence (Q16531 whole entry partner) above

The DC50 is the concentration at which degradation of the target reaches its halfway point. Higher therefore signals a less potent degrader. In the case of `Cn1cnc(-c2ccc3c(c2)CN(C2CCC(=O)NC2=O)C3=O)c1-c1cnn(CC(F)F)c1` (centres unmarked) [Example 497], in test [1] (six hours), the “CK1α Ymin” value is recorded as “D (D = >10- 25% remaining)” and the DC50 was not below 25 nM. For the same compound, in test [2] (six hours), the DC50 is not below 25 nM and the “GSPT1 Ymin” value was “F (F = >75-100% remaining)”.
As for `Cn1cnc(-c2ccc3c(c2)CN(C2CCC(=O)NC2=O)C3=O)c1-c1cccc(Cl)c1Cl` (centres unmarked) [Example 284], in test [1] (six hours incubation), the “CK1α Ymin” value is given as “E (E = >25-75% remaining)” and the DC50 was less than 25 nM. Further, in test [2] (six hours incubation), the DC50 is not below 25 nM and the “GSPT1 Ymin” value is “F (F = >75-100% remaining)”.
As to `Cn1ncc(-c2ccc3c(c2)CN(C2CCC(=O)NC2=O)C3=O)c1-c1ccc2ccn(C)c2c1` (centres unmarked) [Example 386], in test [1] (six hours), the “CK1α Ymin” value is recorded as “E (E = >25-75% remaining)” and the DC50 is less than 25 nM. Further, in test [2] (six hours), the DC50 is not below 25 nM and the “GSPT1 Ymin” value is listed as “F (F = >75-100% remaining)”.
The corresponding values for `Cn1ncc(-c2ccc3c(c2)CN(C2CCC(=O)NC2=O)C3=O)c1-c1ccc2cncn2c1` (centres unmarked) [Example 461] are “C (C = 0-10% remaining)”, not below 25 nM, not below 25 nM and “F (F = >75-100% remaining)”.
Consider `COc1cc(F)ccc1-c1c(-c2ccc3c(c2)CN(C2CCC(=O)NC2=O)C3=O)ncn1C` (centres unmarked) [Example 192], for which, in test [1] (six hours incubation), the “CK1α Ymin” value is “E (E = >25-75% remaining)” and the DC50 is less than 25 nM. Moreover, in test [2] (six hours incubation), the DC50 is less than 25 nM and the “GSPT1 Ymin” value is on record as “E (E = >25-75% remaining)”.
Consider `Cn1cnc(-c2ccc3c(c2)CN(C2CCC(=O)NC2=O)C3=O)c1-c1ccc(F)cc1C(F)(F)F` (centres unmarked) [Example 445], for which, in test [1] (six hours), the “CK1α Ymin” value is recorded as “E (E = >25-75% remaining)” and the DC50 was less than 25 nM. In test [2] (six hours), the DC50 is not below 25 nM and the “GSPT1 Ymin” value is “F (F = >75-100% remaining)”.
For the compound `CC(C)n1cc(-c2ccc3c(c2)CN(C2CCC(=O)NC2=O)C3=O)nc1-c1ccccc1` (centres unmarked) [Example 549, 3-(5-(1-isopropyl-2-phenyl-1H-imidazol-4-yl)-1-oxoisoindolin-2-yl)piperidine-2,6-dione], in test [1] (six hours), the “CK1α Ymin” value was “C (C = 0-10% remaining)” and the DC50 is less than 25 nM. In addition, in test [2] (six hours), the DC50 was not below 25 nM and the “GSPT1 Ymin” value is “F (F = >75-100% remaining)”.
Consider `Cn1cnc(-c2ccc3c(c2)CN(C2CCC(=O)NC2=O)C3=O)c1-c1ccc(OCc2ccccc2)cc1` (centres unmarked) [Example 310], for which, in test [1] (six hours incubation), the “CK1α Ymin” value was “D (D = >10- 25% remaining)” and the DC50 was less than 25 nM. Moreover, in test [2] (six hours incubation), the DC50 is not below 25 nM and the “GSPT1 Ymin” value was “F (F = >75-100% remaining)”.
The like results for `Cc1ccsc1-c1c(-c2ccc3c(c2)CN(C2CCC(=O)NC2=O)C3=O)ncn1C` (centres unmarked) [Example 344] were, in that order, “E (E = >25-75% remaining)”, less than 25 nM, not below 25 nM and “F (F = >75-100% remaining)”.
Regarding `CC(C)Cc1ccc(-c2c(-c3ccc4c(c3)CN(C3CCC(=O)NC3=O)C4=O)cnn2C)cc1` (centres unmarked) [Example 92], in test [1] (six hours incubation), the “CK1α Ymin” value was “E (E = >25-75% remaining)” and the DC50 is not below 25 nM. In addition, in test [2] (six hours incubation), the DC50 is not below 25 nM and the “GSPT1 Ymin” value is listed as “F (F = >75-100% remaining)”.
For the compound `Cn1cnc(-c2ccc3c(c2)CN(C2CCC(=O)NC2=O)C3=O)c1-c1ccc(-c2ccc(C#N)cc2)cc1` (centres unmarked) [Example 299], in test [1] (six hours incubation), the “CK1α Ymin” value was “C (C = 0-10% remaining)” and the DC50 is less than 25 nM. In test [2] (six hours incubation), the DC50 was not below 25 nM and the “GSPT1 Ymin” value is listed as “F (F = >75-100% remaining)”.
The like results for `Cn1cnc(-c2ccc3c(c2)CN(C2CCC(=O)NC2=O)C3=O)c1-c1ccc(N2CCOCC2)c(Cl)c1` (centres unmarked) [Example 315] were, in that order, “D (D = >10- 25% remaining)”, less than 25 nM, not below 25 nM and “F (F = >75-100% remaining)”.
`Cn1c(C(F)F)nc(-c2ccc3c(c2)CN(C2CCC(=O)NC2=O)C3=O)c1-c1cncnc1` (centres unmarked) [Example 540, 3-(5-(2-(difluoromethyl)-1-methyl-5-(pyrimidin-5-yl)-1H-imidazol-4-yl)-1-oxoisoindolin-2-yl)piperidine-2,6-dione]: in test [1] (six hours), the “CK1α Ymin” value is reported as “C (C = 0-10% remaining)” and the DC50 was less than 25 nM. In test [2] (six hours), the DC50 is not below 25 nM and the “GSPT1 Ymin” value is “F (F = >75-100% remaining)”.
For `Cn1cnc(-c2ccc3c(c2)CN(C2CCC(=O)NC2=O)C3=O)c1-c1ccccc1Cl` (centres unmarked) [Example 175], in test [1] (six hours incubation), the “CK1α Ymin” value is listed as “D (D = >10- 25% remaining)” and the DC50 is less than 25 nM. In addition, in test [2] (six hours incubation), the DC50 was not below 25 nM and the “GSPT1 Ymin” value was “F (F = >75-100% remaining)”.
On to `Cn1cc(-c2ccc3c(c2)CN(C2CCC(=O)NC2=O)C3=O)nc1C1CCC(C)(C)CC1` (centres unmarked) [Example 539, 3-(5-(2-(4,4-dimethylcyclohexyl)-1-methyl-1H-imidazol-4-yl)-1-oxoisoindolin-2-yl)piperidine-2,6-dione], for which, in test [1] (six hours), the “CK1α Ymin” value is reported as “E (E = >25-75% remaining)” and the 50% degradation concentration (DC50) was less than 25 nM. Further, in test [2] (six hours), the DC50 is not below 25 nM and the “GSPT1 Ymin” value is recorded as “F (F = >75-100% remaining)”.
For the compound `Cn1ncc(-c2ccc3c(c2)CN(C2CCC(=O)NC2=O)C3=O)c1-c1ccc2nc[nH]c2c1` (centres unmarked) [Example 460], in test [1] (six hours), the “CK1α Ymin” value is given as “D (D = >10- 25% remaining)” and the DC50 was not below 25 nM. Besides, in test [2] (six hours), the DC50 was not below 25 nM and the “GSPT1 Ymin” value is listed as “F (F = >75-100% remaining)”.
In the case of `Cn1cnc(-c2ccc3c(c2)CN(C2CCC(=O)NC2=O)C3=O)c1-c1ccc(Cl)c(F)c1` (centres unmarked) [Example 260], in test [1] (six hours incubation), the “CK1α Ymin” value is listed as “D (D = >10- 25% remaining)” and the DC50 was less than 25 nM. In test [2] (six hours incubation), the DC50 is less than 25 nM and the “GSPT1 Ymin” value is on record as “F (F = >75-100% remaining)”.
As to `COc1ccsc1-c1c(-c2ccc3c(c2)CN(C2CCC(=O)NC2=O)C3=O)cnn1C` (centres unmarked) [Example 473], in test [1] (six hours), the “CK1α Ymin” value was “E (E = >25-75% remaining)” and the DC50 is less than 25 nM. In addition, in test [2] (six hours), the DC50 was not below 25 nM and the “GSPT1 Ymin” value was “F (F = >75-100% remaining)”.
The corresponding values for `Cn1ncc(-c2ccc3c(c2)CN(C2CCC(=O)NC2=O)C3=O)c1-c1cn[nH]c1` (centres unmarked) [Example 468] are “E (E = >25-75% remaining)”, not below 25 nM, not below 25 nM and “F (F = >75-100% remaining)”.
The corresponding values for `Cc1cc(Cl)ccc1-c1nc(-c2ccc3c(c2)CN(C2CCC(=O)NC2=O)C3=O)cn1C` (centres unmarked) [Example 562] are “C (C = 0-10% remaining)”, less than 25 nM, less than 25 nM and “F (F = >75-100% remaining)”.
`CNC(=O)c1ccc(-c2c(-c3ccc4c(c3)CN(C3CCC(=O)NC3=O)C4=O)ncn2C)cc1` (centres unmarked) [Example 267]: in test [1] (six hours incubation), the “CK1α Ymin” value is “C (C = 0-10% remaining)” and the DC50 was not below 25 nM. For the same compound, in test [2] (six hours incubation), the DC50 was not below 25 nM and the “GSPT1 Ymin” value is “F (F = >75-100% remaining)”.
Turning to `Cn1cnc(-c2ccc3c(c2)CN(C2CCC(=O)NC2=O)C3=O)c1-c1ccc(CO)cc1` (centres unmarked) [Example 236], in test [1] (six hours incubation), the “CK1α Ymin” value is on record as “C (C = 0-10% remaining)” and the DC50 was less than 25 nM. In test [2] (six hours incubation), the DC50 was not below 25 nM and the “GSPT1 Ymin” value is recorded as “E (E = >25-75% remaining)”.
The like results for `Cn1ncc(-c2ccc3c(c2)CN(C2CCC(=O)NC2=O)C3=O)c1-c1cccc(N2CCCCC2)c1` (centres unmarked) [Example 111] were, in that order, “F (F = >75-100% remaining)”, not below 25 nM, not below 25 nM and “F (F = >75-100% remaining)”.
The like results for `Cc1ccccc1-c1c(-c2ccc3c(c2)CN(C2CCC(=O)NC2=O)C3=O)cnn1C` (centres unmarked) [Example 74] were, in that order, “E (E = >25-75% remaining)”, less than 25 nM, not below 25 nM and “F (F = >75-100% remaining)”.
The corresponding values for `Cn1cnc(-c2ccc3c(c2)CN(C2CCC(=O)NC2=O)C3=O)c1-c1ccc(N2CCCC2)cc1` (centres unmarked) [Example 288] are “C (C = 0-10% remaining)”, less than 25 nM, less than 25 nM and “E (E = >25-75% remaining)”.
As to `Cn1ncc(-c2ccc3c(c2)CN(C2CCC(=O)NC2=O)C3=O)c1-c1ccc2cccnc2c1` (centres unmarked) [Example 385], in test [1] (six hours), the “CK1α Ymin” value is “E (E = >25-75% remaining)” and the DC50 is less than 25 nM. Also, in test [2] (six hours), the DC50 is not below 25 nM and the “GSPT1 Ymin” value is “F (F = >75-100% remaining)”.
The corresponding values for `COCCCOc1ccc(-c2c(-c3ccc4c(c3)CN(C3CCC(=O)NC3=O)C4=O)cnn2C)cc1` (centres unmarked) [Example 411] are “E (E = >25-75% remaining)”, less than 25 nM, not below 25 nM and “F (F = >75-100% remaining)”.
Take `O=C1CCC(N2Cc3cc(-c4cnn(-c5ccccc5)c4)ccc3C2=O)C(=O)N1` (centres unmarked) [Example 9, 3-(1-Oxo-5-(1-phenyl-1H-pyrazol-4-yl)isoindolin-2-yl)piperidine-2,6-dione]: in test [1] (six hours incubation), the “CK1α Ymin” value is given as “E (E = >25-75% remaining)” and the DC50 was not below 25 nM. Moreover, in test [2] (six hours incubation), the DC50 is not below 25 nM and the “GSPT1 Ymin” value is given as “E (E = >25-75% remaining)”.
Take `Cn1ncc(-c2ccc3c(c2)CN(C2CCC(=O)NC2=O)C3=O)c1-c1ccc(Cl)cc1` (centres unmarked) [Example 216]: in test [1] (six hours incubation), the “CK1α Ymin” value is recorded as “E (E = >25-75% remaining)” and the DC50 was less than 25 nM. Besides, in test [2] (six hours incubation), the DC50 is not below 25 nM and the “GSPT1 Ymin” value is recorded as “F (F = >75-100% remaining)”.
